Consider 1 molecule from patent US20160313301A1, “METHOD FOR PREDICTING ANTITUMOR EFFICACY OF HSP90 INHIBITOR IN CANCER TREATMENT” (NIPPON KAYAKU KABUSHIKI KAISHA, priority 2013, published 2016).

Each structure is given as a SMILES string.

This experiment deals with human ovarian cancer cells OV-90. Description: Anti-tumor test in mice transplanted subcutaneously with tumor (OV-90). Type of experiment: in vivo. The note with it: OV-90 s.c. in mice. As to the method: Human ovarian cancer cell lines OC-10-JCK, OC-11-JCK, and TOGY-18, and a human breast cancer cell line MC-19-JCK were obtained from Central Institute for Experimental Animals. Cryopreserved tumor pieces were thawed, and then OC-10-JCK, OC-11-JCK, and MC-19-JCK were transplanted subcutaneously to SCID mice, while TOGY-18 was transplanted subcutaneously to nude mice. After the tumors were grown, the tumors were removed and cut into tumor pieces. The tumor pieces were transplanted subcutaneously to SCID mice or nude mice with trocars. The tumors were maintained by repeated transplantation in the same manner as described above to prepare tumors to be transplanted. Human ovarian cancer cell lines ES-2, SK-OV-3, OV-90, and TOV-21G, and a human lung cancer cell line NCI-H1975 were obtained from American Type Culture Collection (ATCC). The SK-OV-3 and NCI-H1975 cell lines were grown in recommended culture media, of which about 1×10^7 cells were suspended into HBSS and then injected subcutaneously to SCID mice. After the cells formed tumors, the tumors were removed and cut into tumor pieces. The tumor pieces were transplanted subcutaneously to SCID mice with trocars. The tumors were maintained by repeated transplantation in the same manner as described above to prepare tumors to be transplanted. […]

On to `CC(C)c1cc(-c2n[nH]c(=O)n2-c2ccc(CN3CCN(C)CC3)cc2)c(O)cc1O` [A-1, 5-(2,4-dihydroxy-5-isopropyl-phenyl)-4-[4-(4-methyl-piperazin-1-ylmethyl)-phenyl]-2,4-dihydro-[1,2,4]triazol-3-one], for which the “anti-tumor effect (in words)” value is listed as “relatively highly effective”. The “T/C % (lowest value from the beginning to the 21st day of administration)” value (40 mg/kg tail vein three times at 4 day intervals) came out at 30.4%.
